# Source: patent US10242153B2, “Method for determining the risk profile of neoplastic tissue” (NOVAZOI THERANOSTICS, priority 2014, dated 2019)
# How the values were obtained:
# [1] = test system: MDA-MB-231 (231) cells; test: Peak subG1 fraction by flow cytometry (propidium iodide) after declustering drugs, 231 cells; assay type: cell-based, human
# Experimental: (§1) To evaluate the impact of putative declustering drugs on cell cycle progression and hypodiploidy (<2N DNA content, which may indicate apoptotic cells), MDA-MB-231 (231), PC3, and HeLa cells were treated with different concentrations of declustering drugs, stained with propidium iodide, labeled with anti-MPM2 antibody, and then assessed by flow cytometry at multiple time points over 48 hr. […] The duration, highest degree, and rapidity of onset of MA varied between drugs, drug concentrations, and cell lines (data not shown). In general, the maximum MA achieved was less pronounced in Nos- and PJ-treated cells. Drug-induced onset of MA was corroborated by substantial increases in cyclin B1 levels in all cell lines. For most cases, prolonged MA (˜24 hr in duration) was followed by a substantial increase in the subG1 population fraction. […] Instances where the subGl fraction was elevated without cleaved caspase-3 may either represent caspase-independent cell death or the presence of hypodiploid cells whose fate is unclear. In general, no consistent associations between the extent, duration, or timing of MA within drugs or across cell lines was found.
# [2] = test system: HeLa cells; test: Peak subG1 fraction by flow cytometry after declustering drugs, HeLa cells; assay type: cell-based
# Experimental: as §1
# [3] = test system: PC3 cells; test: Peak subG1 fraction by flow cytometry after declustering drugs, PC3 cells; assay type: cell-based
# Experimental: as §1
# [4] = test system: adult human dermal fibroblasts (HDFs); test: Peak subG1 fraction after declustering drugs, non-malignant HDFs; assay type: cell-based; settings: for Peak subG1 percents over 48 h: HDF; for death in cancer cell lines vs. HDFs: both concentrations
# Experimental: as §1
# (§2) To determine whether the CA-inducing activity of declustering drugs is restricted to cancer cells, two non-malignant cell lines, mammary fibrocystic (MCF10A) cells and adult human dermal fibroblasts (HDFs) were treated with these drugs. […] In comparison, 10 and 25 µM RBN increased peak CA over controls in interphase cells (p<0.001 and p=0.001, respectively), with the lower concentration dramatically augmenting peak CA to 56% of cells versus 15% for the higher dose (FIG. 13, panel B).
# In HDFs, all the drugs tested increased peak subG1 over controls in a significant fashion (p<0.01 for all) (Table 2). […] Thus, it appears that there may be clinically relevant therapeutic windows for these drugs depending on the type of cancer and the drug dosage.
# [5] = test system: mammary fibrocystic (MCF10A) cells; test: Peak subG1 fraction after declustering drugs, non-malignant MCF10A cells; assay type: cell-based; settings: for peak subG1 percent compared to controls: MCF10A cells; for Peak subG1 percents over 48 h: MCF10A
# Experimental: as §1, §2
# Importantly, a therapeutic window exists for several of these agents at the concentrations and in the cell lines tested compared to cancer cells.
# [6] = test system: MCF10A cells; test: Centrosome amplification (CA) by microscopy, MCF10A cells; assay type: cell-based; settings: for CA / peak extent of CA versus control levels: interphase and mitotic MCF10A cells, both concentrations (10 and 25 μM), over 24 h
# Experimental: (§3) Consequently, CA was assessed in cultures treated with different concentrations of declustering drugs for 6, 12, 18, or 24 h and untreated controls via microscopy. Centrosomes were identified by γ-tubulin and centrin-2 colocalization at discrete foci.
# as §2
# [7] = test system: adult human dermal fibroblasts (HDFs); test: Centrosome amplification (CA) by microscopy, HDFs; assay type: cell-based; settings: for extent of CA over controls: HDFs, any of the concentrations or time points assessed
# Experimental: as §3, §2
# [8] = test system: ZR-75-30 cells with amplified centrosomes (ZR-A); test: Sub-G1 population in ZR-75-30 cells with amplified centrosomes (ZR-A) versus parent cells; assay type: cell-based; settings: 25 μM, 48 h
# Experimental: Panel A depicts representative DNA histograms comparing cell-cycle kinetics of ZR-75-30 cells and ZR-A cells treated with bromonoscapine (BN, 25 μM), griseofulvin (GF, 25 μM) or PJ34 (25 μM), respectively for 48 h. […] Panel B depicts a quantitative comparison of sub-G1 population in ZR-75-30 and ZR-A cells upon treatment with the three drugs with the same concentration (25 μM) for the same duration (48 h).
# Accordingly, these cells can be pharmacologically manipulated with aphidicolin to generate extra centrosomes. […] Following aphidicolin wash-out, cells were stained using anti-centrin-2 antibodies to verify extra centrosomes by immunofluorescence confocal microscopy. About ˜60% ZR-75-30 cells generated extra centrosomes (6-8 per cell) and were evaluated for their sensitivity to the three drugs, griseofulvin, bromonoscapine, and PJ34, and compared with parent ZR-75-30 cells with normal centrosomes.
# [9] = test system: N1E-115 cells; test: Drug sensitivity (IC50) of N1E-115 cells; assay type: cell-based, murine; settings: Mus musculus; N1E-115 cells (data not shown)
# [10] = test system: N1E-115 cells; test: Interphase declustering index (DI) in N1E-115 cells; assay type: cell-based, murine; settings: 6-h treatment, 25 interphase cells, drugs at their respective IC50 concentrations
# Experimental: To evaluate their effect on interphase clustering, N1E-115 cells were treated with these drugs at their respective IC50 concentrations for 0, 3, 6 and 9 h and co-immunostained for γ-tubulin and α-tubulin to evaluate centrosomal spread and microtubule nucleation status, respectively.
# Cell cycle phases were further evaluated via lamin A/C immunostaining to distinguish interphase declustering events from prophase centrosomal spread. To quantitate the spread of the interphase centrosomal cluster, a 3D reconstruction of z-stack images of 25 randomly-selected interphase cells from the 6-h treatment group of each drug were generated. By defining an ROI (region of interest) around the interphase centrosomal cluster, the volume of the cluster spread was calculated using Volocity software. Likewise, defining an ROI using the cell periphery provided the cell volume.
# [11] = test system: N1E-115 cells; test: Neuritogenesis (neurite extension) in serum-starved N1E-115 cells; assay type: cell-based, murine
# Experimental: N1E-115 cells grown in serum-starved (SS) medium were evaluated to determine the extent of neurite formation after 48 h of treatment with RedBr-Nos (5 μM), Griseofulvin (10 μM), PJ-34 (10 μM), Paclitaxel (0.05 μM) treatment or untreated control cells (i.e., serum-starved medium (SS) alone). Panels Ai and Aii depict quantitative bar graphs representing the average length of neurites and percentage of population of cells showing neurite length >10 μm, respectively. A hundred cells were counted in each case. […] Panel B depicts an immunoblot showing CLASP1 expression levels in control (C) and CLASP1 siRNA-transfected N1E-115 cells.
# Neuritogenesis is a process in nerve cells involving the extension of polarized, elongated neurites. N1E-115 cells usually extend only one major neurite per cell, which can vary in length from 5 to 500 μm. The growth cones of the neurites serve as primary focal points of motility. The effect of declustering agents on cell motility was evaluated by assessing the length and frequency of neurites formed in a serum-free medium on a laminin-coated surface.
# [12] = test system: N1E-115 cells; test: Golgi (GM130) and γ-tubulin co-immunostaining of drug-treated N1E-115 cells; assay type: cell-based, murine; settings: data not shown
# Text: The Golgi, which is primarily responsible for posttranslational modification and protein sorting, also functions as a microtubule-organizing center (MTOC). It has been hypothesized that supernumerary centrosomes may better organize the Golgi to enhance directional cell migration. To investigate what happens to the Golgi upon declustering drug-induced dispersal of the interphase centrosomal cluster, drug-treated N1E-115 cells were co-immunostained with GM130 (a cis-Golgi matrix protein crucial for maintaining its structure) and γ-tubulin.
# [13] = test system: N1E-115 cells; test: Vinculin localization in serum-starved N1E-115 cells; assay type: cell-based, murine; settings: serum-starved (SS) cells
# Text: Vinculin stabilizes cell-substrate contacts in neuronal cells undergoing neuritogenesis, while activation by actin-binding proteins mobilizes vinculin to focal adhesions. To determine the localization of vinculin in the neurite extensions and the effect of declustering agents on its localization, N1E-115 cells were immunostained cells for vinculin and stained F-actin using rhodamine-phalloidin.
# [14] = test system: N1E-115 cells; test: Ki67 and cleaved caspase-3 immunostaining of serum-starved N1E-115 cells; assay type: cell-based, murine; settings: RedBr-Nos 5 μM, Griseofulvin 10 μM, PJ-34 10 μM
# [15] = test system: 231 cells; test: Centrosome amplification (CA) by microscopy (γ-tubulin/centrin-2 foci), 231 cells; assay type: cell-based, human; settings: 231 cells, 25 μM
# Experimental: Consequently, CA was assessed in cultures treated with different concentrations of declustering drugs for 6, 12, 18, or 24 h and untreated controls via microscopy. Centrosomes were identified by γ-tubulin and centrin-2 colocalization at discrete foci. […] The peak percent CA detected over 24 h is shown in FIG. 13 (only statistically significant (P<0.05) increases over control values are represented in the Figures). To better understand the “potency” of drug-induced CA with time, the average fold change in CA over controls over 24 h was assessed (FIG. 12, panel A), whereby the extent of CA across time points (i.e., 6, 12, 18, and 24 hr) was averaged and then divided by the extent of CA in control (i.e., 0 hr). All of the drugs at least doubled the peak extent of CA in all cell lines tested (FIG. 12, panel A), although the final extent of CA could be small or large in magnitude depending on the initial centrosomal burden as shown in FIG. 11. […] The peak extent in interphase HeLa cells was somewhat less at 30.7% and 48.1% for 10 and 25 μM RBN, respectively (FIG. 13, panel A). For Nos and BN, there was no major difference in CA levels in interphase versus mitotic cells.
# [16] = test system: PLK4, Cyclin E, and Aurora A; test: Western blotting of markers of centrosome amplification; assay type: cell-based; settings: 231 cells, 25 μM
IC50 [9],SMILES,Peak subG1 percents over 48 h ([1]; 10 μM),Peak subG1 percents over 48 h ([1]; 25 μM),maximum (peak) subG1 fraction relative to control ([1]; 25 μM),Peak subG1 percents over 48 h ([2]; 10 μM),Peak subG1 percents over 48 h ([2]; 25 μM),Peak subG1 percents over 48 h ([3]; 10 μM),Peak subG1 percents over 48 h ([3]; 25 μM),Peak subG1 percents over 48 h ([4]; 10 μM),Peak subG1 percents over 48 h ([4]; 25 μM),death in cancer cell lines vs. HDFs [4],peak subG1 percent compared to controls [5],Peak subG1 percents over 48 h ([5]; 10 μM),Peak subG1 percents over 48 h ([5]; 25 μM),CA / peak extent of CA versus control levels [6],extent of CA over controls [7],sub-G1 population versus parent ZR-75-30 cells [8],interphase declustering index (DI): ratio of average cluster volume to average cell volume [10],fragmentation of the interphase Golgi complex [12],vinculin localization and focal adhesion points [13],other results
–,"COc1ccc2c(c1OC)C(=O)O[C@@H]2[C@H]1c2c(c(Br)c3c(c2OC)OCO3)CCN1C [BN, bromonoscapine]",32.5%,65.2%,9.3 × control,42.0%,54.9%,46.0%,42.8%,16.5%,20.4%,the same was true for 231 and PC3 cells,did not cause a significant increase,3.5%,3.0%,neither concentrations of Nos or BN significantly increased CA over control levels,did not significantly increase the extent of CA over controls,much higher sub-G1 population compared to parent ZR-75-30 cells,–,–,–,maximum (peak) subG1 fraction relative to control ([2]; 25 μM): 4.4 × control; maximum (peak) subG1 fraction relative to control ([3]; 25 μM): 9.2 × control
25 µM,"COC1=CC(=O)C[C@@H](C)[C@]12Oc1c(Cl)c(OC)cc(OC)c1C2=O [GF, griseofulvin]",–,62.0%,6.4 × control,–,59.5%,–,33.7%,–,32.9%,more death in 231 and HeLa cells,did increase peak SubG1,–,22.7%,–,–,much higher sub-G1 population compared to parent ZR-75-30 cells,0.28,most robust effect,complete internalization of vinculin and complete loss of focal adhesion points,"Peak subG1 percents over 48 h ([1]; 50 μM): 60.0%; Peak subG1 percents over 48 h ([2]; 50 μM): 79.0%; maximum (peak) subG1 fraction relative to control ([2]; 50 μM): 4.3 × control; Peak subG1 percents over 48 h ([3]; 50 μM): 39.5%; maximum (peak) subG1 fraction relative to control ([3]; 50 μM): 16.3 × control; Peak subG1 percents over 48 h ([4]; 50 μM): 38.3%; susceptibility / toxicity in MCF10A cells versus cancer cell lines ([5]; 25 μM): All cancer cell lines were found to be more susceptible; susceptibility of MCF10A cells versus cancer cell lines ([5]; 50 μM): MCF10A and PC3 cells were equally susceptible; Peak subG1 percents over 48 h ([5]; 50 μM): 35.1%; peak interphase CA ([6]; interphase MCF10A cells, 25 and 50 μM): 13-16%; CA in mitotic cells versus controls ([6]; mitotic MCF10A cells, 25 and 50 μM): no increase was observed; peak CA ([7]; interphase HDFs only, 25 and 50 μM): 14-15%; inhibition at 10 µM ([11]; Mus musculus, N1E-115, 48 h, RedBr-Nos 5 μM, Griseofulvin 10 μM): 70 to 80%; Ki67-positive cells [14]: high proportion of Ki67-positive cells"
–,"COc1ccc2c(c1OC)C(=O)O[C@@H]2[C@H]1c2c(cc3c(c2OC)OCO3)CCN1C [Nos, noscapine]",26.3%,43.9%,–,25.0%,50.1%,29.9%,32.7%,14.8%,11.2%,more death in all cancer cell lines vs. HDFs,did not cause a significant increase,4.1%,4.2%,neither concentrations of Nos or BN significantly increased CA over control levels,did not significantly increase the extent of CA over controls,–,–,–,–,induction of CA [15]: failed to induce significant CA; expression levels of Cyclin E and PLK4 [16]: surge in the expression levels of Cyclin E and PLK4
0.05 µM,"CC(=O)O[C@H]1C(=O)[C@@]2(C)[C@H]([C@H](OC(=O)c3ccccc3)[C@]3(O)C[C@H](OC(=O)[C@H](O)[C@@H](NC(=O)c4ccccc4)c4ccccc4)C(C)=C1C3(C)C)[C@]1(OC(C)=O)CO[C@@H]1C[C@@H]2O [Paclitaxel, paclitaxel]",–,–,–,–,–,–,–,–,–,–,–,–,–,–,–,–,0.08,interphase Golgi complex fragmented,less severe,"inhibition of neurite extension ([11]; 48 h, PJ-34 10 μM, Paclitaxel 0.05 μM): moderate inhibition"
